Measured values published in patent US11123355B2, “Antiviral benzyl-amine phosphodiamide compounds” (Merck Sharp & Dohme Corp., priority 2016, dated 2021).
Where two headings read alike, the source gives them in different places.

Tested on: HIV-1 (H9/IIB strain)
Experiment: Multiple Round HIV-1 Infection Assay (Viking Assay) in MT4-GFP cells
Type: cell-based
Details: inhibition of reproductive ratio R0
Procedure, shortened: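 MT-4 cells with tat/rev-dependent GFP reporter infected overnight with virus at MOI ~0.01, then incubated in RPMI with 10% or 50% normal human serum with 10-point 3-fold dilutions (typically 8.4 μM–0.42 nM final). Green cells counted at ~48 and ~72 h to give R0; IC50 from 4-parameter fit of R0 inhibition.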

[1] = MT4-GFP cells infected with HIV-1, 10% normal human serum, read-out: Viking, IC50 (10% NHS)
[2] = MT4-GFP cells infected with HIV-1, 50% normal human serum, read-out: Viking, IC50 (50% NHS)

Row | Molecule | IC50 [1] [nM] | IC50 [2] [nM]
1 | CCCOC(=O)C(C)(C)N[P@@](=O)(CO[C@H](C)Cn1cnc2c(N)ncnc21)N[C@H](C)c1cccc(F)c1 [Example 9A, propyl 2-(((R)-((((R)-1-(6-amino-9H-purin-9-yl)propan-2-yl)oxy)methyl)(((R)-1-(3-fluorophenyl)ethyl)amino)phosphoryl)ami-no)-2-methylpropanoate and propyl 2-(((S)-((((R)-1-(6-amino-9H-purin-9-yl)propan-2-yl)oxy)methyl)(((R)-1-(3-fluorophenyl)ethyl)amino)phosphoryl)ami-no)-2-methylpropanoate] | 89 | 940
2 | CCCOC(=O)C(C)(C)NP(=O)(CO[C@H](C)Cn1cnc2c(N)ncnc21)N[C@H](C)c1ccccc1OC (stereo partly drawn) [Example 20A, propyl 2-(((R)-((((R)-1-(6-amino-9H-purin-9-yl)propan-2-yl)oxy)methyl)(((R)-1-(2-methoxyphenyl)ethyl)amino)phosphoryl)a-mino)-2-methylpropanoate and propyl 2-(((S)-((((R)-1-(6-amino-9H-purin-9-yl)propan-2-yl)oxy)methyl)(((R)-1-(2-methoxyphenyl)ethyl)amino)phosphoryl)a-mino)-2-methylpropanoate] | 61 | 590
3 | CCCOC(=O)C(C)(C)N[P@@](=O)(CO[C@H](C)Cn1cnc2c(N)ncnc21)N[C@@H](C)c1ccccc1OC [Example 17B, propyl 2-(((R)-((((R)-1-(6-amino-9H-purin-9-yl)propan-2-yl)oxy)methyl)(((S)-1-(2-methoxyphenyl)ethyl)amino)phosphoryl)a-mino)-2-methylpropanoate and propyl 2-(((S)-((((R)-1-(6-amino-9H-purin-9-yl)propan-2-yl)oxy)methyl)(((S)-1-(2-methoxyphenyl)ethyl)amino)phosphoryl)a-mino)-2-methylpropanoate] | 84 | 510
4 | propyl 2-(((R)-((((R)-1-(6-amino-9H-purin- 9-yl)propan-2-yl)oxy)methyl)((4- cyanobenzyl)amino)phosphoryl)amino)-2- methylpropanoate and propyl 2-(((S)-((((R)-1-(6-amino-9H-purin- 9-yl)propan-2-yl)oxy)methyl)((4- cyanobenzyl)amino)phosphoryl)amino)-2- methylpropanoate [Example 6B] | 250 | 850
5 | CCCOC(=O)C(C)(C)N[P@@](=O)(CO[C@H](C)Cn1cnc2c(N)ncnc21)N[C@H](C)c1ccc(OC)cc1 [Example 15B, propyl 2-(((R)-((((R)-1-(6-amino-9H-purin-9-yl)propan-2-yl)oxy)methyl)(((R)-1-(4-methoxyphenyl)ethyl)amino)phosphoryl)a-mino)-2-methylpropanoate and propyl 2-(((S)-((((R)-1-(6-amino-9H-purin-9-yl)propan-2-yl)oxy)methyl)(((R)-1-(4-methoxyphenyl)ethyl)amino)phosphoryl)a-mino)-2-methylpropanoate] | 7.4 | 40
6 | CCCOC(=O)C(C)(C)N[P@@](=O)(CO[C@H](C)Cn1cnc2c(N)ncnc21)N[C@H](C)c1ccc(Cl)cc1C [Example 29A, propyl 2-(((R)-((((R)-1-(6-amino-9H-purin-9-yl)propan-2-yl)oxy)methyl)(((R)-1-(4-chloro-2-methylphenyl)ethyl)amino)phosphoryl)ami-no)-2-methylpropanoate and propyl 2-(((S)-((((R)-1-(6-amino-9H-purin-9-yl)propan-2-yl)oxy)methyl)(((R)-1-(4-chloro-2-methyphenyl)ethyl)amino)phosphoryl)ami-no)-2-methylpropanoate] | 260 | 2300
7 | CC(C)OC(=O)C(C)(C)NP(=O)(CO[C@H](C)Cn1cnc2c(N)ncnc21)N[C@H](C)c1ccc(OC(F)(F)F)cc1 (stereo partly drawn) [Example 34A, isopropyl 2-(((R)-((((R)-1-(6-amino-9H-purin-9-yl)propan-2-yl)oxy)methyl)(((R)-1-(4-(trifluoromethoxy)phenyl)ethyl)amino)phos-phoryl)amino)-2-methylpropanoate and isopropyl 2-(((S)-((((R)-1-(6-amino-9H-purin-9-yl)propan-2-yl)oxy)methyl)(((R)-1-(4-(trifluoromethoxy)phenyl)ethyl)amino)phos-phoryl)amino)-2-methylpropanoate] | 760 | 4200
8 | propyl 2-(((R)-((((R)-1-(6-amino-9H-purin- 9-yl)propan-2-yl)oxy)methyl)((3- fluorobenzyl)amino)phosphoryl)amino)-2- methylpropanoate and propyl 2-(((S)-((((R)-1-(6-amino-9H-purin- 9-yl)propan-2-yl)oxy)methyl)((3- fluorobenzyl)amino)phosphoryl)amino)-2- methylpropanoate [Example 8A] | 110 | 680
9 | CCCOC(=O)C(C)(C)N[P@@](=O)(CO[C@H](C)Cn1cnc2c(N)ncnc21)N[C@@H](c1ccc(C#N)cc1)C(F)(F)F.CCCOC(=O)C(C)(C)N[P@](=O)(CO[C@H](C)Cn1cnc2c(N)ncnc21)N[C@@H](c1ccc(C#N)cc1)C(F)(F)F (mixture of isomers) [Example 24B, propyl 2-(((R)-((((R)-1-(6-amino-9H-purin-9-yl)propan-2-yl)oxy)methyl)(((S)-1-(4-cyanophenyl)-2,2,2-trifluoroethyl)amino)phosphoryl)amino)-2-methylpropanoate and propyl 2-(((S)-((((R)-1-(6-amino-9H-purin-9-yl)propan-2-yl)oxy)methyl)(((S)-1-(4-cyanophenyl)-2,2,2-trifluoroethyl)amino)phosphoryl)amino)-2-methylpropanoate] | 22 | 170
10 | CCCOC(=O)C(C)(C)N[P@@](=O)(CO[C@H](C)Cn1cnc2c(N)ncnc21)N[C@@H](C)c1ccc(OC)cc1 [Example 14A, propyl 2-(((R)-((((R)-1-(6-amino-9H-purin-9-yl)propan-2-yl)oxy)methyl)(((S)-1-(4-methoxyphenyl)ethyl)amino)phosphoryl)a-mino)-2-methylpropanoate and propyl 2-(((S)-((((R)-1-(6-amino-9H-purin-9-yl)propan-2-yl)oxy)methyl)(((S)-1-(4-methoxyphenyl)ethyl)amino)phosphoryl)a-mino)-2-methylpropanoate] | 25 | 140
11 | CCCOC(=O)C(C)(C)NP(=O)(CO[C@H](C)Cn1cnc2c(N)ncnc21)N[C@@H](C)c1ccc(Cl)cc1 (stereo partly drawn) [Example 13B, propyl 2-(((R)-((((R)-1-(6-amino-9H-purin-9-yl)propan-2-yl)oxy)methyl)(((S)-1-(4-chlorophenyl)ethyl)amino)phosphoryl)ami-no)-2-methylpropanoate and propyl 2-(((S)-((((R)-1-(6-amino-9H-purin-9-yl)propan-2-yl)oxy)methyl)(((S)-1-(4-chlorophenyl)ethyl)amino)phosphoryl)ami-no)-2-methylpropanoate] | 73 | 310
12 | CCCOC(=O)C(C)(C)NP(=O)(CO[C@H](C)Cn1cnc2c(N)ncnc21)N[C@H](C)c1ccc(C(F)(F)F)cc1 (stereo partly drawn) [Example 12A, propyl 2-(((R)-((((R)-1-(6-amino-9H-purin-9-yl)propan-2-yl)oxy)methyl)(((R)-1-(4-(trifluoromethyl)phenyl)ethyl)amino)phos-phoryl)amino)-2-methylpropanoate and propyl 2-(((S)-((((R)-1-(6-amino-9H-purin-9-yl)propan-2-yl)oxy)methyl)(((R)-1-(4-(trifluoromethyl)phenyl)ethyl)amino)phos-phoryl)amino)-2-methylpropanoate] | 96 | 680
13 | CCCOC(=O)C(C)(C)N[P@](=O)(CO[C@H](C)Cn1cnc2c(N)ncnc21)N(C)[C@H](C)c1ccc(OC(F)(F)F)cc1 [Example 33A, propyl 2-(((R)-((((R)-1-(6-amino-9H-purin-9-yl)propan-2-yl)oxy)methyl)(methyl((R)-1-(4-(trifluoromethoxy)phenyl)ethyl)amino)phos-phoryl)amino)-2-methylpropanoate and propyl 2-(((S)-((((R)-1-(6-amino-9H-purin-9-yl)propan-2-yl)oxy)methyl)(methyl((R)-1-(4-(trifluoromethoxy)phenyl)ethyl)amino)phos-phoryl)amino)-2-methylpropanoate] | 25 | 84
14 | propyl 2-(((R)-((((R)-1-(6-amino-9H-purin- 9-yl)propan-2-yl)oxy)methyl)((4- cyanobenzyl)amino)phosphoryl)amino)-2- methylpropanoate and propyl 2-(((S)-((((R)-1-(6-amino-9H-purin- 9-yl)propan-2-yl)oxy)methyl)((4- cyanobenzyl)amino)phosphoryl)amino)-2- methylpropanoate [Example 6A] | 70 | 660
15 | CCCOC(=O)C(C)(C)NP(=O)(CO[C@H](C)Cn1cnc2c(N)ncnc21)N[C@@H](C)c1ccc(Cl)cc1C (stereo partly drawn) [Example 30B, propyl 2-(((R)-((((R)-1-(6-amino-9H-purin-9-yl)propan-2-yl)oxy)methyl)(((S)-1-(4-chloro-2-methylphenyl)ethyl)amino)phosphoryl)ami-no)-2-methylpropanoate and propyl 2-(((S)-((((R)-1-(6-amino-9H-purin-9-yl)propan-2-yl)oxy)methyl)(((S)-1-(4-chloro-2-methylphenyl)ethyl)amino)phosphoryl)ami-no)-2-methylpropanoate] | 56 | 750
